System: microbes (bacteria and fungi)
Experiment: USP 51, Antimicrobial Effectiveness Test
Assay type: cell-based
Conditions: combined with 12.5 ppm colloidal silver; aqueous solution containing seaweed extract

Compound: CS(C)(=O)=O [MSM, methylsulfonylmethane]
- sufficient concentration of MSM for effective cosmetic preservation per USP 51: 10 % (w/w)
